Results taken from patent US9169241B2, “Quinolinyloxyphenylsulfonamides” (Max-Planck-Gesellschaft Zur Forderung der Wissenschaften …, priority 2009, dated 2015).

Tests used:
Type in all cases: cell-based
SK-MEL28 = experiment: Matrigel outgrowth assay/branching assay; settings: IC100, SK-MEL28; Table Vb
In short: (§1)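 Matrigel 3 mg/ml, polymerized 1 h 37° C; 5000 cells/well + cmpd 3.125/1.56/0.78 μM or DMSO. Imaged 48/72/96 h, 5× objective. Positive = total branching block.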

U138 = experiment: Matrigel outgrowth assay/branching assay; settings: IC100, U138; Table Vb
In short: as §1

PC3 [1] = experiment: Matrigel outgrowth assay/branching assay; settings: IC100, PC3; Table Vb
In short: as §1

NCI-H1299 = experiment: Matrigel outgrowth assay/branching assay; settings: IC100, NCI-H1299; Table Vb
In short: as §1

U373 [2] = experiment: Matrigel outgrowth assay/branching assay; settings: IC100, U373; Table Vb
In short: as §1

U87MG = experiment: Matrigel outgrowth assay/branching assay; settings: IC100, U87MG; Table Vb
In short: as §1

DU145 = experiment: Cell vitality assay (ATP assay, CellTiter-Glo); settings: Homo sapiens, DU-145, Table IIb
In short: (§2)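 Luminescent ATP read-out of viable cells; IC50 = concentration at which ATP falls to 50% of DMSO control. Cells seeded at 1000/well, treated 72 h with seven concentrations from 0.195 to 12.5 μM.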

H460 = experiment: Cell vitality assay (ATP assay, CellTiter-Glo); settings: Homo sapiens, NCI-H460, Table IIc
In short: as §2

MiaPaca-2 = experiment: Cell vitality assay (ATP assay, CellTiter-Glo); settings: Homo sapiens, MIA PaCa-2, Table IIb
In short: as §2

PC3 [3] = experiment: Cell vitality assay (ATP assay, CellTiter-Glo); settings: Homo sapiens, PC-3, Table IIb
In short: as §2

U373 [4] = experiment: Cell vitality assay (ATP assay, CellTiter-Glo); settings: Homo sapiens, U373 MG, Table IIc
In short: as §2

MDA-MB435s = experiment: Cell vitality assay (ATP assay, CellTiter-Glo); settings: Homo sapiens, MDA-MB-435S, Table IIc
In short: as §2

HT29 = experiment: Cell vitality assay (ATP assay, CellTiter-Glo); settings: Homo sapiens, HT-29, Table IIc
In short: as §2

Panc-1 = experiment: Cell vitality assay (ATP assay, CellTiter-Glo); settings: Homo sapiens, Table IIb
In short: as §2

Aspc-1 = experiment: Cell vitality assay (ATP assay, CellTiter-Glo); settings: Homo sapiens, ASPC1, Table IIb
In short: as §2

A549 = experiment: Cell vitality assay (ATP assay, CellTiter-Glo); settings: Homo sapiens, Table IIc
In short: as §2

786-0 = experiment: Cell vitality assay (ATP assay, CellTiter-Glo); settings: Homo sapiens, Table IIb
In short: as §2

MCF10A = experiment: Cell vitality assay (ATP assay, CellTiter-Glo); settings: Homo sapiens, MCF-10A, Table IIb
In short: as §2

Row | SMILES | IC50 (DU145) | IC50 (H460) | IC50 (MiaPaca-2) | IC50 (PC3 [3]) | IC50 (MDA-MB435s) | IC50 (HT29) | IC50 (Panc-1) | IC50 (Aspc-1) | IC50 (A549) | IC50 (786-0) | Total branching inhibition in Matrigel SK-MEL28 (SK-MEL28) | Total branching inhibition in Matrigel U138 (U138) | Total branching inhibition in Matrigel PC3 (PC3 [1]) | Total branching inhibition in Matrigel NCI-H1299 (NCI-H1299) | Total branching inhibition in Matrigel U373 (U373 [2]) | Total branching inhibition in Matrigel U87MG (U87MG) | IC50 (U373 [4]) | IC50 (MCF10A)
1 | COc1cc2c(Oc3ccc(NS(=O)(=O)c4cccc(Oc5ccccc5)c4)cc3F)ccnc2cc1OCCCN1CCN(C)CC1 [Example 14, N-(3-Fluoro-4-{6-methoxy-7-[3-(4-methyl-piperazin-1-yl)-propoxy]-quinolin-4-yloxy}-phenyl)-3-phenoxy-benzenesulfonamide] | – | – | – | – | – | – | – | – | – | – | – | ++ (IC100≦12.5 μM) | – | – | – | – | – | –
2 | COc1cc2c(Oc3ccc(NS(=O)(=O)c4cc(F)ccc4F)cc3F)ccnc2cc1OCCCN1CCCCC1 [Example 1, 2,5-Difluoro-N-{3-fluoro-4-[6-methoxy-7-(3-piperidin-1-yl-propoxy)-quinolin-4-yloxy]-phenyl}-benzenesulfonamide] | ≤ 12.5 µM | ≤ 12.5 µM | ≤ 12.5 µM | ≤ 12.5 µM | ≤ 12.5 µM | ≤ 12.5 µM | 12.5 to 50 µM | ≤ 12.5 µM | ≤ 12.5 µM | 12.5 to 50 µM | ++ (IC100≦12.5 μM) | ++ (IC100≦12.5 μM) | ++ (IC100≦12.5 μM) | ++ (IC100≦12.5 μM) | ++ (IC100≦12.5 μM) | + (IC100>12.5 μM) | ≤ 12.5 µM | –
3 | COc1cc2c(Oc3ccc(NS(=O)(=O)c4ccccc4C(F)(F)F)cc3F)ccnc2cc1OCCCN1CCN(C)CC1 [Example 24, N-(3-Fluoro-4-{6-methoxy-7-[3-(4-methyl-piperazin-1-yl)-propoxy]-quinolin-4-yloxy}-phenyl)-2-trifluoromethyl-benzenesulfonamide] | ≤ 12.5 µM | ≤ 12.5 µM | ≤ 12.5 µM | 12.5 to 50 µM | ≤ 12.5 µM | ≤ 12.5 µM | 12.5 to 50 µM | ≤ 12.5 µM | ≤ 12.5 µM | ≤ 12.5 µM | ++ (IC100≦12.5 μM) | ++ (IC100≦12.5 μM) | ++ (IC100≦12.5 μM) | ++ (IC100≦12.5 μM) | ++ (IC100≦12.5 μM) | + (IC100>12.5 μM) | ≤ 12.5 µM | ≤ 12.5 µM

Further lines, with some results ahead:

Row | IC50 (DU145) | IC50 (H460) | IC50 (MiaPaca-2) | IC50 (PC3 [3]) | IC50 (MDA-MB435s) | IC50 (HT29) | IC50 (Panc-1) | IC50 (Aspc-1) | IC50 (A549) | IC50 (786-0) | SMILES | Total branching inhibition in Matrigel SK-MEL28 (SK-MEL28) | Total branching inhibition in Matrigel U138 (U138) | Total branching inhibition in Matrigel PC3 (PC3 [1]) | Total branching inhibition in Matrigel NCI-H1299 (NCI-H1299) | Total branching inhibition in Matrigel U373 (U373 [2]) | Total branching inhibition in Matrigel U87MG (U87MG) | IC50 (U373 [4]) | IC50 (MCF10A)
4 | ≤ 12.5 µM | ≤ 12.5 µM | ≤ 12.5 µM | ≤ 12.5 µM | ≤ 12.5 µM | ≤ 12.5 µM | 12.5 to 50 µM | ≤ 12.5 µM | ≤ 12.5 µM | ≤ 12.5 µM | COc1cc2c(Oc3ccc(NS(=O)(=O)c4cc(F)ccc4F)cc3F)ccnc2cc1OCCCN1CCN(C)CC1 [Example 12, 2,5-Difluoro-N-(3-fluoro-4-{6-methoxy-7-[3-(4-methyl-piperazin-1-yl)-propoxy]-quinolin-4-yloxy}-phenyl)-benzenesulfonamide] | ++ (IC100≦12.5 μM) | ++ (IC100≦12.5 μM) | ++ (IC100≦12.5 μM) | ++ (IC100≦12.5 μM) | ++ (IC100≦12.5 μM) | + (IC100>12.5 μM) | ≤ 12.5 µM | –
5 | ≤ 12.5 µM | ≤ 12.5 µM | ≤ 12.5 µM | ≤ 12.5 µM | ≤ 12.5 µM | ≤ 12.5 µM | ≤ 12.5 µM | ≤ 12.5 µM | ≤ 12.5 µM | ≤ 12.5 µM | COC(=O)c1sccc1S(=O)(=O)Nc1ccc(Oc2ccnc3cc(OCCCN4CCCC(C)C4)c(OC)cc23)c(F)c1 (stereo not shown) [Example 66, 3-(3-Fluoro-4-{6-methoxy-7-[3-(3-methyl-piperidin-1-yl)-propoxy]-quinolin-4-yloxy}-phenylsulfamoyl)-thiophene-2-carboxylic acid methyl ester] | ++ (IC100≦12.5 μM) | ++ (IC100≦12.5 μM) | ++ (IC100≦12.5 μM) | ++ (IC100≦12.5 μM) | ++ (IC100≦12.5 μM) | ++ (IC100≦12.5 μM) | ≤ 12.5 µM | –
